Data reported in ChEMBL document CHEMBL1201862, “PubChem BioAssay data set” (2004).
Blank lines part the entries; values can stand above or below the compound they belong to. Active and inactive are the calls of the source.

Legend:
[1] = biological target: T1, Polyadenylate-binding protein 1 (Homo sapiens, UniProt P11940); test: PABP1 MLLE–PAM2 interaction inhibitors, dose response, miRNA deadenylation inhibitor project, biochemical, fluorescence polarization, Cy5-PAM2 peptide, secondary (AID 602260); format: functional; settings: read-out: IC50_Mean
[2] = biological target: T1, Polyadenylate-binding protein 1; test: PABP1 MLLE–PAM2 binding inhibitor potency, dose response, biochemical, fluorescence polarization, FITC-PAM2 peptide (AID 602259); format: functional; settings: read-out: IC50_Mean
[3] = cells; format: functional, cell-based
[4] = cells; format: functional, cell-based; remark: listed apart in the source
[5] = biological target: Induced myeloid leukemia cell differentiation protein Mcl-1 (Homo sapiens, UniProt Q07820); format: functional
[6] = biological target: T2, Corticotropin-releasing factor receptor 2/Corticotropin-releasing factor-binding protein (Homo sapiens, UniProt P24387+Q13324); test: Dose Response confirmation of uHTS hits for small molecule antagonists of the CRF-binding protein and CRF-R2 receptor complex.; format: functional; settings: read-out: IC50_Mean
T2 sequence (Q13324 whole entry): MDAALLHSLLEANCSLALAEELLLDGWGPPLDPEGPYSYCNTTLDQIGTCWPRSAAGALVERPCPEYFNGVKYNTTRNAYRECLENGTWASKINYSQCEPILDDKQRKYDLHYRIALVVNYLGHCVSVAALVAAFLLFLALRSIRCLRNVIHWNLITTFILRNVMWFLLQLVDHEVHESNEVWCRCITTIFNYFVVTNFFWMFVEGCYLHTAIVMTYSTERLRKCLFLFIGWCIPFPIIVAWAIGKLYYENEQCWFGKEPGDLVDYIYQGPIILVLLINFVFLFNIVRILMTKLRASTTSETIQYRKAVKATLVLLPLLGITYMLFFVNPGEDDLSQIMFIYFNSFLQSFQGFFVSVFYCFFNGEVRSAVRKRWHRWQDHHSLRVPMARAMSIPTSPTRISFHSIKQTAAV
T2 sequence (P24387 whole entry): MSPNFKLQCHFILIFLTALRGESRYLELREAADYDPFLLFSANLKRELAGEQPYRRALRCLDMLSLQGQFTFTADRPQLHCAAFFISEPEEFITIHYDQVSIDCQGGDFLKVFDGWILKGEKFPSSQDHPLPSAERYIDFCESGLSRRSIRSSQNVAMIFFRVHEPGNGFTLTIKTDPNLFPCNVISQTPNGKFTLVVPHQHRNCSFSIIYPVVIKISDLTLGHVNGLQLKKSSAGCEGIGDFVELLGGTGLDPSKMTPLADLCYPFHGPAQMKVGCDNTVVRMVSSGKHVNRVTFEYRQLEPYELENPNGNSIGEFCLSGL

[7] = biological target: T2, Corticotropin-releasing factor receptor 2/Corticotropin-releasing factor-binding protein; test: activators of CRF receptor 2 with binding protein – uHTS hits, confirmation (AID 602473); format: functional; settings: read-out: EC50_Mean
[8] = Shn3 3'UTR reporter inhibitors, dose response, cell-based, Clone20 osteoblasts, firefly luciferase, cherry-picked (AID 624132); format: functional;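 note: firefly luciferase luminescence from reporter carrying the Shn3 3'UTR in osteoblasts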
[9] = HepG2 cell cytotoxicity, dose response, cytotoxicity control for Shn3 inhibitor project, CellTiter-Glo, cherry-picked (AID 624134); format: functional, cell-based
[10] = control 3'UTR Renilla luciferase suppression, dose response, counter-screen for Shn3 inhibitor project, cell-based, Clone20-Shn3RL, cherry-picked (AID 624133); format: functional
[11] = inhibitors of HIV Env-driven cell fusion, dose response, cherry-pick (AID 652057); format: functional, cell-based
[12] = ZM109 Env clade C HIV-1 fusion inhibitors, dose response, HeLa effector, CEM target cells, luciferase, cherry-pick (AID 652058); format: functional, cell-based
[13] = off-target signal loss in HeLa-CEM21 co-culture – HeLa F-luc CTL cells, cherry-picked, counter-screen for HIV-1 Env fusion inhibitor project, dose response (AID 652040); format: functional, cell-based;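 note: potency for signal decrease marking cytotoxic or nonspecific inhibition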
[14] = inhibitors of clade B AD8 Env fusion, dose response, cell-based, cherry-pick (AID 652062); format: functional;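 note: luciferase signal from cell-cell fusion driven by HIV-1 clade B AD8 Env; potency is for inhibitors of fusion seen as a drop in luminescence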
[15] = biological target: T3, RNA-binding protein pos-1 (Caenorhabditis elegans, UniProt G5EF15); test: inhibitors of POS-1/mex-3 RNA binding, dose response, biochemical, fluorescence polarization (AID 1964);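 note: purified POS-1 fused to maltose binding protein made in E. coli; potency of compounds blocking POS-1 binding to fluorescent RNA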
T3 sequence (G5EF15 whole entry): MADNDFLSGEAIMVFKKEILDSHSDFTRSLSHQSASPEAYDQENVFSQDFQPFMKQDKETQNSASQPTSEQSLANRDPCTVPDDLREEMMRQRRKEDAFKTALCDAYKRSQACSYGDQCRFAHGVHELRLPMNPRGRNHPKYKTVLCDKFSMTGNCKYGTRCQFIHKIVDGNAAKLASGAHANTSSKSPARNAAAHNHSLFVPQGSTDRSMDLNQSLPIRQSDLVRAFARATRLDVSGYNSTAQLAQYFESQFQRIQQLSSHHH

[16] = biological target: T4, Zinc finger protein mex-5 (Caenorhabditis elegans, UniProt Q9XUB2); test: MEX-5/TCR-2 RNA interaction inhibitors, dose response, biochemical, C. elegans, fluorescence polarization (AID 1960)
T4 sequence (Q9XUB2 whole entry): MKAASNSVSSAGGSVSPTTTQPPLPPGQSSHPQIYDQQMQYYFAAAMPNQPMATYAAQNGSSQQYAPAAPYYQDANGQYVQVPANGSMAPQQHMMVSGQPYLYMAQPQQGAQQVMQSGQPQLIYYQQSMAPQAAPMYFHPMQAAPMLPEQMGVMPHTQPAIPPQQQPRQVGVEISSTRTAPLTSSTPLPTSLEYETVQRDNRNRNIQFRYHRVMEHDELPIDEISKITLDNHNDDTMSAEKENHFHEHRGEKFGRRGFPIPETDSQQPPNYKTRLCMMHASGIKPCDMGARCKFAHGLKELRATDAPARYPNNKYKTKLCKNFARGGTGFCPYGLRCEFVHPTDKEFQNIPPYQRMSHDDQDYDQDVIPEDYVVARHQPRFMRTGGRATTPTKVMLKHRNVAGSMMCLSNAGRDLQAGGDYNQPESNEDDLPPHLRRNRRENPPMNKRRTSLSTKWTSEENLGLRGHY

[17] = Luminescence Cell-Based Dose Retest to Confirm Inhibitors of Cancer Stem Cells. [Related pubchem assays (depositor defined):AID2717, AID2721]; format: functional; settings: Homo sapiens
[18] = test system: INS1; test: beta cell apoptosis inhibitors, cytokine rescue, dose response, luminescence, retest (AID 449756); format: functional, cell-based; settings: Rattus norvegicus;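 note: cell death triggered by IL-1 beta plus TNF-alpha plus IFN-gamma mixture; protective hits raise ATP signal compared with cytokine alone wells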

T1 sequence (P11940 whole entry): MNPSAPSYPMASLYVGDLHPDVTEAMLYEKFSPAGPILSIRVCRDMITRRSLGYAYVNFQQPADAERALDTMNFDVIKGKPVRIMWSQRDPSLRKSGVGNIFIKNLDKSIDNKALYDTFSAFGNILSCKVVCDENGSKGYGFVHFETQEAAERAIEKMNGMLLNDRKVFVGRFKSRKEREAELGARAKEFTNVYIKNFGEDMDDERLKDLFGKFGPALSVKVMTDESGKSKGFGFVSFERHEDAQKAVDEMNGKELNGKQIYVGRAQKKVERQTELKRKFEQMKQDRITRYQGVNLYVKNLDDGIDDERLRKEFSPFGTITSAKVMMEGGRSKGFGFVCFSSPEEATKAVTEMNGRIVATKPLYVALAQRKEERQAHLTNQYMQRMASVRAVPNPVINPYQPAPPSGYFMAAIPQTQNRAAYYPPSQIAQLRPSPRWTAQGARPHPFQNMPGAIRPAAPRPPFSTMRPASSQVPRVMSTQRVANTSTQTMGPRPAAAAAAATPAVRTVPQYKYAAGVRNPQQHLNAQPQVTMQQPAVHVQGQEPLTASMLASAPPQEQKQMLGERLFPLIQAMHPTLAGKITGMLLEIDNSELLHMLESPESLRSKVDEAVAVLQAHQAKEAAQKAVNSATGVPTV
Induced myeloid leukemia cell differentiation protein Mcl-1, sequence (Q07820 whole entry): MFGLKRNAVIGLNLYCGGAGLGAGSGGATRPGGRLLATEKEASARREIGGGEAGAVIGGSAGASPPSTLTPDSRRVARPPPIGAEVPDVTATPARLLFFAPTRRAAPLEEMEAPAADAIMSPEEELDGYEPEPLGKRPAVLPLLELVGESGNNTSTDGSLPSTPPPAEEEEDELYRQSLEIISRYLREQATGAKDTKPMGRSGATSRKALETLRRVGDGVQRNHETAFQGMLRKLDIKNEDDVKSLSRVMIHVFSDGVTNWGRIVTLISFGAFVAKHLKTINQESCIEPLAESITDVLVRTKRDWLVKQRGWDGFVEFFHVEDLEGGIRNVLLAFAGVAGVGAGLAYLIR

Structure (SMILES): CC(=O)Nc1sc(-c2ccccc2)nc1-c1ccccc1
EC50 [3]: > 350 µM (not active) | EC50 [4]: > 350 µM (not active)

Structure (SMILES): CNc1sc(C(=O)c2ccc(F)cc2)c(N)c1-c1nc2ccccc2s1
IC50 [5]: 2.45 µM (active)

Structure (SMILES): C/C=C\C=C/C(=O)Nc1cccc(C2=NOC3(C2)C[C@@H](C(N)=O)N(C(=O)c2ccccc2)C3)c1 (stereo partly drawn)
IC50 [5]: 6.9 µM (not active)

Structure (SMILES): Cc1nn(-c2ccccc2)c(NC(=O)c2cccs2)c(-c2ccccc2Cl)c1=O
IC50 [6]: > 47.1 µM (inactive) | EC50 [7]: > 53 µM (inactive)

Structure (SMILES): O=C(c1ccccc1)C(CN1CCCCC1)c1ccccc1 (stereo not drawn)
AC50 [8]: 2.41 µM (active) | AC50 [9]: 15.7 µM (active) | AC50 [10]: 5.56 µM (active)

Structure (SMILES): CCN1C(=O)[C@H]2[C@@H](c3ccc(C)cc3)N3C(=O)N(c4cccc(Br)c4)C(=O)[C@@]3(CC(C)C)[C@H]2C1=O
AC50 [11]: 0.26 µM (active) | AC50 [12]: 0.374 µM (active) | AC50 [13]: 0.382 µM (active) | AC50 [14]: 0.672 µM (active)

Structure (SMILES): CCCCCCCCNS(=O)(=O)CCNCc1ccc(OC)cc1
IC50 [6]: > 47.1 µM (inactive) | EC50 [7]: > 53 µM (inactive)

Structure (SMILES): O=C(CCSc1nc2ccccc2s1)N/N=C/c1c(O)ccc2ccccc12
EC50 [15]: 21.2 µM (active) | EC50 [3]: 8.97 µM (active) | EC50 [16]: 14.6 µM (active) | EC50 [4]: 31.3 µM (active) | AC50 [17]: 4.52 µM (active) | AC50 [18]: 1.95 µM (active)

Structure (SMILES): Cc1ccc(/C=N/NC(=O)CN2CCN(Cc3ccccc3Cl)CC2)o1
EC50 [3]: > 350 µM (not active) | EC50 [4]: > 350 µM (not active)

Results, then the compound that gave them:

IC50 [1]: > 66 µM (inactive) | IC50 [2]: > 66 µM (inactive)
Structure (SMILES): Cc1cccc(NC(=O)C(NS(=O)(=O)c2ccc3c(c2)CCC(=O)N3)c2ccccc2)n1 (stereo not drawn)

IC50 [1]: > 66 µM (inactive) | IC50 [2]: > 66 µM (inactive)
Structure (SMILES): Cc1cc(C(=O)NC(=S)Nc2cccc(NC(=O)C(C)C)c2)ccc1[N+](=O)[O-]

IC50 [6]: > 47.1 µM (inactive) | EC50 [7]: > 53 µM (inactive)
Structure (SMILES): CC1CCN(C(=O)C2CCN(S(=O)(=O)c3cccs3)CC2)CC1

IC50 [6]: > 47.1 µM (inactive) | EC50 [7]: > 53 µM (inactive)
Structure (SMILES): CCCCCNC1=CC(=O)CC(c2ccccc2)C1 (stereo not drawn)

IC50 [1]: > 66 µM (inactive) | IC50 [2]: > 66 µM (inactive)
Structure (SMILES): COc1ccc(NC(=S)N/N=C/c2ccc(F)cc2)cc1OC
